Legend:
[1] = test system: mice treated with scopolamine; experiment: Spontaneous alternation in Y-maze, scopolamine amnesia model; type: in vivo; details: IP; scopolamine model
Protocol: FIG. 5: Anti-amnesic effect of compound 3b in mice treated with scopolamine: (a, b) spontaneous alternation in Y-maze, and (c, d) passive avoidance. The mice were given compound 3b (0.03-1.5 mg/kg IP) 10 min before scopolamine (0.5 mg/kg SC), 20 min before the Y-maze session or passive avoidance training. Y-maze test: (a) spontaneous alternation and (b) total number of arm entries; retention of passive avoidance: (c) step-through latency and (d) escape latency. ANOVA: F(6.94)=5.32, p<0.0001 at (a); F(6.94)=10.6, p<0.0001 at (b); H=31.4, p<0.0001 at (c); H=24.3, p<0.001 at (d); n=12-19 per group. *p<0.05, **p<0.01, ***p<0.001 compared with group (Sc.Aβ+V); #p<0.05, ##p<0.01, ###p<0.001 compared with group (Aβ25-35+V); Dunnett test at (a, b) and Dunn at (c, d).
FIG. 6: Analysis of the antagonism of anti-amnesic effects of compound 3b in mice treated with scopolamine: (a, c, e) spontaneous alternation in Y-maze, and (b, d, f) step-through latency at recall session of passive avoidance. The mice were treated with methyllycaconitine (MLA, 1 or 3 mg/kg IP), dihydro-ß-erythroidine (DHßE, 1 or 3 mg/kg IP), or NE100 (1 mg/kg IP), simultaneously with compound 3b (0.1 mg/kg IP) 10 min before scopolamine (S, 0.5 mg/kg SC), 20 min before behavioural session. ANOVA: F(5.87)=7.19, p<0.0001 at (a); H=31.3, p<0.0001 at (b); F(5.82)=5.82, p<0.0001 at (c); H=28.8, p<0.0001 at (d); F(4.77)=10.0, p<0.0001 at (e); H=30.5, p<0.0001 at (f); n=12-17 per group. *p<0.05, **p<0.01, ***p<0.001 compared with group (Sc.Aβ+V); #p<0.05, ##p<0.01, ###p<0.001 compared with group (Aβ25-35+V); Dunnett test at (a, b) and Dunn at (c, d).
The animals were tested for spontaneous alternation performance in a Y-maze, an index of spatial working memory. The Y-maze was in grey PVC. Each arm was 40 cm long, 13 cm high, 3 cm wide at the base and 10 cm wide in the upper part, and converging at an equal angle. Each mouse was placed at one end of an arm and was able to move freely through the maze during an 8-min session. The series of arm entries, including any returns in the same arm were visually analysed. Alternation is defined as being consecutive entries in three different arms. The maximum number of alternations is therefore the total number of arm entries less two, and alternation percentage is calculated as (actual alternations/maximum possible alternations)×100. […]
Finally, a first mechanistic analysis of the pharmacological effect in vivo of compound 3b was carried out. With the objective of confirming that the compound, neuroprotective against amyloid toxicity, could also be anti-amnesic in a pharmacological amnesia model, we first determined its effectiveness against the amnesic effects of scopolamine. […]

[2] = test system: mice; experiment: Forced swim test; type: in vivo; details: 5 mg/kg
Protocol: FIG. 13: Assays of compound 3b as positive modulator of the sigma-1 protein. […] Male Swiss mice aged 7 weeks (n=10-12 per group) were forced to swim for 15 min on Day 1 and 6 min on Day 2. They were given NE-100 (10 mg/kg ip), 10 min before compound 3b (10 mg/kg ip) and 20 min before the session of Day 2. Immobility was measured over the last 5 minutes of the session. The vehicle solution was distilled water. F(3.42)=4.45, p<0.01; **p<0.01 vs. group V/V, ##p<0.01 vs. group V/3b, Dunnet test. […] Wild-type mice (Wt, n=14-15) and S1R KO mice (n=9-10) were forced to swim 15 min on Day 1 and 6 min on Day 2. They were given compound 3b (10 mg/kg ip) 20 min before the session on Day 2. Immobility was measured during the last 5 minutes of the session. The vehicle solution was distilled water. F(3.49)=6.64, p<0.001; **p<0.01 vs. group Wt/V, Dunnett test. […] Male Swiss mice aged 7 weeks (n=8-23 per group) were forced to swim for 15 min on Day 1 and 6 min on Day 2. They were given igmesine (10, 30 mg/kg ip) and/or compound 3b (10 mg/kg ip) 20 min before the session on Day 2. NE-100 (10 mg/kg ip) was injected 10 min before igmesine and compound 3b. Immobility was measured during the last 5 minutes of the session. The vehicle solution was distilled water. F(6.90)=5.59, p<0.0001; ***p<0.001 vs. group V, ##p<0.01 vs. group V/Igmesine (10)+3B (5), Dunnett test.

SMILES: CC1(C)COP(=O)(c2cccc(Cl)c2)C(C)(C)N1 (racemic) [Compound 3b, (±)-2-(3-Chlorophenyl)-2-oxo-3,3,5,5-tetramethyl-[1,4,2]-oxazaphosphinane]
- effective dose (anti-amnesic) [1]: 0.1 mg/kg
- activity in forced swim test [2]: not active

— patent publication US10947260B2, “Phosphinolactone derivatives and pharmaceutical uses thereof” (INSTITUT NATIONAL DE LA SANTE ET DE LA RECHERCHE MEDICALE …, priority 2016, dated 2021)
